Source: patent US20190022114A1, “METHODS AND COMPOSITIONS FOR REDUCING BODY WEIGHT AND INCREASING GUT MOTILITY” (priority 2016, published 2019)

Experiments:
Wistar rats = settings: 13 weeks, cited from earlier work
[1] = system: LEPR (Leptin Receptor) mutants; experiment: Weight loss and fat loss effect of D-ribose in mouse obesity model; format: in vivo; settings: 48 days
Method: Classic obesity model LEPR (Leptin Receptor) mutants (Age 42 day, male) and wild-type FVB strain mice were used in the testing.
D-ribose was feed to mice in D-ribose water solution at concentrations indicated (75 mg/ml and 50 mg/ml). Control animals were feed with water. All animals were fed on normal diet. There was no restriction on the amount of liquid or food consumption.
The liquid and food consumption were measured at 4 day intervals. The actual D-ribose consumption for each animal was calculated based on its liquid intake volume.
Mouse body fat was measured using MiniSpec NMR Analyzer.
P-values were calculated using t-test (unpaired, 2 tails) for data points after 48 days of treatment.
Test results were shown in FIG. 1 and FIG. 2, wherein Square (▪) represents the treatment group, and Circle (●) represents control group. Classic obesity model LEPR (Leptin Receptor) mutants (Age 42 day, male) were used in the testing. The control group was fed with water. Animals were fed on normal diet.

C57BL/6 mice = experiment: Whole gut transit time (carmine gavage); format: in vivo, mouse; settings: 0.5 ml 75 mg/ml oral gavage, p value=0.004
Method: D-ribose was administered to C57BL/6 mice of 8 weeks old. Before administering, mice were fasted for 18 hours with free access to water and housed on a mesh plate without bedding. The mice were orally fed with 0.5 ml carmine solution (6% carmine in 0.5% methylcellulose) containing either 75 mg/ml D-ribose or xylose. After oral force gavage, mice were returned to individually housed mesh bottom cages, which were placed on a white sheet. Whole gut transit time is the time taken from carmine meal gavage to the appearance of the first red fecal pellets.

Compound: O=C[C@H](O)[C@H](O)[C@H](O)CO [D-ribose]
- NOAEL, females (Wistar rats; female rats, 5% in diet): 4.4 g/kg body weight/day
- NOAEL, males (Wistar rats; male rats, 5% in diet): 3.6 g/kg body weight/day
- no observed adverse effect level (NOAEL), concentration in the diet (Wistar rats; rats, in diet): 5%
- effect at up to 20% of diet (Wistar rats; rats, up to 20% of diet (15.0 and 15.7 g/kg body weight/day males and females)): nutritional but not toxicological effect
- fat gain (body fat measurement) ([1]; 50 mg/ml in water, 20.59 gram/kg/day, data not shown): reduced fat gain but not statistically significant
- weight gain vs control animals ([1]; 50 mg/ml in water, 20.59 gram/kg/day, obese LEPR mutant male mice, p-value 0.001): statistically significantly decreased weight gain
- body fat (NMR) vs control animals ([1]; 75 mg/ml in water, 30.03 gram/kg/day, obese LEPR mutant male mice, p-value 0.00015): fat loss
- body weight vs control animals ([1]; 75 mg/ml in water, 30.03 gram/kg/day, obese LEPR mutant male mice, p-value 0.01): statistically significant weight loss
- gut transition time vs xylose control (C57BL/6 mice): shortened gut transition time
